Target: T1, fibrin gels (40 mg/mL fibrinogen, 33 U/mL thrombin) (Homo sapiens, UniProt P02671+P02675+P02679)
T1 construct: purchased Ethicon (Evicel)
T1 sequence (P02671 20-644 isoform P02671-2 limits assumed): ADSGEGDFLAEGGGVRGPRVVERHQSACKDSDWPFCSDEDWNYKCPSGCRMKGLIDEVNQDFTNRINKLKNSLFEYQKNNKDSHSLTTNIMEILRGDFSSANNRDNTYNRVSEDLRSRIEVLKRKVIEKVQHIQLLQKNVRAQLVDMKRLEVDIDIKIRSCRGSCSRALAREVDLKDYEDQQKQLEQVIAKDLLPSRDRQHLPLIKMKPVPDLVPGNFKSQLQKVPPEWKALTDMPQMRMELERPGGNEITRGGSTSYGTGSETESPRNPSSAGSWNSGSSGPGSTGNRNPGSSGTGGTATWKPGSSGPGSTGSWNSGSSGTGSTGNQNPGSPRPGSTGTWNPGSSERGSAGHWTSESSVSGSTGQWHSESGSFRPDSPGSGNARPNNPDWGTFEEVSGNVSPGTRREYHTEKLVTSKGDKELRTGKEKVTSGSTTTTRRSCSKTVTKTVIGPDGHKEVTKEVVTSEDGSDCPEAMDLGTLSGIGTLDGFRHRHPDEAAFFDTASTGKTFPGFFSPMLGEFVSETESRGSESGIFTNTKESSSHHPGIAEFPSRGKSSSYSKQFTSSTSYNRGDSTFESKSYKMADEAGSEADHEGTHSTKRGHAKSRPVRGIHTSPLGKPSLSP
T1 sequence (P02675 45-491 limits assumed): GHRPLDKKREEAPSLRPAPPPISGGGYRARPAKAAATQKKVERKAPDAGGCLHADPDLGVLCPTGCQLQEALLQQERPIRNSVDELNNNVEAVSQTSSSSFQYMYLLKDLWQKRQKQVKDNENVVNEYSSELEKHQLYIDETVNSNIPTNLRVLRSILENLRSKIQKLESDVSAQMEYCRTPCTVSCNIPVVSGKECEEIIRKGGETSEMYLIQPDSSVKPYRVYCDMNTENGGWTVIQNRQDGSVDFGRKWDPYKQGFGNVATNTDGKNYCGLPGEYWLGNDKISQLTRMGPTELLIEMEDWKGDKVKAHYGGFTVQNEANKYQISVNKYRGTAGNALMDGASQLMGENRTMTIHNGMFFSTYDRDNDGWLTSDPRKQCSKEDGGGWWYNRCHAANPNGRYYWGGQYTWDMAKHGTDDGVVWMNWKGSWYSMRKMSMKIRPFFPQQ
T1 sequence (P02679 27-437 isoform P02679-2 limits assumed): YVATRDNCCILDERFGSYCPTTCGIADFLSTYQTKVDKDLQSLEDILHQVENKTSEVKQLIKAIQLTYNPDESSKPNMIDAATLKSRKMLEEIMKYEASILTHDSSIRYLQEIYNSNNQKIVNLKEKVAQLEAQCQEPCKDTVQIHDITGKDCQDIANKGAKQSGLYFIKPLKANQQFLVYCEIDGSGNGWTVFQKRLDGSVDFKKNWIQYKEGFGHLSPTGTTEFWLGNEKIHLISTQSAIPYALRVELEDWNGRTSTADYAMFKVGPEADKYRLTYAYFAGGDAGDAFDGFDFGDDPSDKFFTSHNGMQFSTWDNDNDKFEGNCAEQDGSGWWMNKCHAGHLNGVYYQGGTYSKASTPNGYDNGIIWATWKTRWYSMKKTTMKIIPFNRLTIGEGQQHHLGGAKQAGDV
Assay: Rheometry gelation time, polymerization time and shear modulus, higher fibrinogen concentration fibrin gels
Format: biochemical
Details: 0.12% w/v dye, n=3; for final shear modulus (g′): strain sweep after 2 hour time sweep
Procedure: The viscoelastic mechanical properties of fibrin gels were characterized using oscillatory shear rheology on a Discovery Hybrid Rheometer 2 (TA Instruments; New Castle, DE) with a 20 mm cone-and-plate geometry at a 1° angle and a 20 mm stage. Inertia, friction, and rotational mapping calibrations were performed prior to each experiment. A Peltier temperature-controlled stage maintained 37° C. and a solvent trap was used to control evaporation during experiments lasting longer than 20 minutes. Gels were prepared by mixing specified concentrations of fibrinogen, dye, and thrombin on the stage. Immediately after combining, the geometry head was lowered to 500 μm (˜1-3 seconds) before beginning the first experiment. Gelation kinetics were monitored in time sweeps at 1% strain and 10 rad/s angular frequency. Strain sweeps were measured from 0.01-1000% strain at 1 Hz frequency. A frequency sweeps measured from 0.01-3 Hz at 1% strain was used to confirmed fibrin independence of frequency.
To determine the final polymerization time and resultant shear modulus, a final concentration of 40 mg/mL fibrinogen, 33 U/mL thrombin, and 0.12% w/v dye was used to simulate fibrin scaffold parameters described elsewhere (see, e.g., Gandhi et al., 2018 Acta Biomater., 67:134-46). A time sweep was performed for 2 hours, and the strain sweep was measured following the time sweep to confirm final polymerization had occurred. The shear modulus was determined by averaging values within the linear region of the strain sweep (between 0.01% and 0.5% strain). A 95% confidence interval was defined for the final shear modulus and the lower range value was used as the threshold to determine the final polymerization time.
With confirming that both TB and EB, but not PEG, cause a substantial increase in gelation time, polymerization time was measured. The polymerization time is the total time for the hydrogel to fully form with no remaining soluble fibrin monomer. Functionally, this is defined as the point at which the shear modulus no longer changes. Quantitatively, this is defined at the point at which the g′ reaches its maximum and plateaus over time.
To test if the inclusion of TB and EB would alter the polymerization time, the previous rheometry setup was used over a longer range of time. Unfortunately, evaporative effects were detected as early as 2 hours. […] The surface was sticky, and the presence of non-cross-linked fibrin was evident. To measure polymerization time reliably, the fibrinogen and thrombin concentrations were increased. A 40 mg/mL fibrinogen and 33 U/mL thrombin final concentration is capable of fully polymerizing within 2 hours (see, e.g., Gandhi et al., Acta Biomater., 67:134-46 (2018)). As such, the rheometry experiment were repeated at these concentrations. A final concentration of 0.12% w/v for TB, EB and PEG was used.
Both PBS and PEG groups show g′ values greater than g″ values at the first detectable time point (12 seconds), showing that both groups had already past the initial gelation time. TB and EB show a delay in gelation but appear to quickly approach the PBS and PEG groups. Near the 1000 sec mark, all four groups appear to show a similar growth of g′ overtime. A strain sweep was measured at the end of the time sweep to confirm that the gel had completed polymerization within the 2 hour time frame. Shear modulus values from the linear portion of the strain sweep were verified with rheological data described elsewhere (see, e.g., Wedgwood et al., Macromolecular Symposia, 334:117-25 (2013); and Moreno-Arotzena et al., Materials (Basel), 8:1636-51 (2015)), and used to determine the final gel shear modulus. Using this shear modulus value, the polymerization time for each sample was calculated. The polymerization times for PBS, TB, EB, and PEG groups were 97.0±14.9, 94.6±8.3, 106.2±10.7, 93.8±17.0 minutes (n=3, p=0.654) (FIG. 8B).

| SMILES | gelation time [s] | polymerization time [min] | final shear modulus (g′) [Pa] |
| --- | --- | --- | --- |
| Cc1cc(-c2ccc(/N=N/c3ccc4c(S(=O)(=O)O)cc(S(=O)(=O)O)c(N)c4c3O)c(C)c2)ccc1/N=N/c1ccc2c(S(=O)(=O)O)cc(S(=O)(=O)O)c(N)c2c1O [EB, Evans Blue] | 89.6 ± 17.9 | 106.2 ± 10.7 | 2077±441 |
| Cc1cc(-c2ccc(/N=N/c3c(S(=O)(=O)O)cc4cc(S(=O)(=O)O)cc(N)c4c3O)c(C)c2)ccc1/N=N/c1c(S(=O)(=O)O)cc2cc(S(=O)(=O)O)cc(N)c2c1O [TB, Trypan Blue] | 42.4 ± 19.4 | 94.6 ± 8.3 | 2197±221 |
